This test concerns the target human CXCR3A (Homo sapiens (Human), UniProt P49682). The test can be described thus: FLIPR assay (inhibition of CXCL10-induced calcium signal). The format is cell-based. Conditions: engineered CHO-K1 cells expressing human CXCR3A coupled to Galpha(16); Fluo-4-AM; CXCL10 agonist 20 nM; mean values where determined several times. In short, it runs like this: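 CHO-K1 cells expressing human CXCR3A coupled to Gα16 were loaded with Fluo-4-AM for 1 h in HBSS/20 mM Hepes pH 7.4 with probenecid. Compound was added, then CXCL10 (20 nM as dispensed). Baseline-subtracted peak fluorescence gave inhibition curves and IC50, averaged over repeats.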

Molecules are shown by their SMILES.

As usually defined, the IC50 is the point on the concentration scale where inhibition reaches its midpoint.

Sequence of human CXCR3A (P49682 whole entry): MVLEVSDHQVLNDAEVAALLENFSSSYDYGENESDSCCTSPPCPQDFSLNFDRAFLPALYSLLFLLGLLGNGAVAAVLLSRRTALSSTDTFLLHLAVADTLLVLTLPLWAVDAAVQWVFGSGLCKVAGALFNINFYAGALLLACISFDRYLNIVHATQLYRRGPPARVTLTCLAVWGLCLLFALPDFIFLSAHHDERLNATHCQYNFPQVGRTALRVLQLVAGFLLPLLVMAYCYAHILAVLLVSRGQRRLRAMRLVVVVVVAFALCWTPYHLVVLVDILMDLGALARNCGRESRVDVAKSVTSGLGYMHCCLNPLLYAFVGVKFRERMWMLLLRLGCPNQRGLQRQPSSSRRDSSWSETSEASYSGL

As to `CC(C)C(=O)N1CCc2cccc(N3CCN(C(=O)Cn4cnc5cccnc54)[C@H](C)C3)c2C1` [Example 67, 1-{8-[(R)-4-(2-Imidazo[4,5-b]pyridin-3-yl-acetyl)-3-methyl-piperazin-1-yl]-3,4-dihydro-1H-isoquinolin-2-yl}-2-methyl-propan-1-one], the IC50 is 614 nM. In the case of `COCC(=O)N1CCc2cccc(N3CCN(C(=O)Cn4cnc5cccnc54)[C@H](C)C3)c2C1` [Example 68, 2-Imidazo[4,5-b]pyridin-3-yl-1-{(R)-4-[2-(2-methoxy-acetyl)-1,2,3,4-tetrahydro-isoquinolin-8-yl]-2-methyl-piperazin-1-yl}-ethanone], the IC50 came to 599 nM. On to `C[C@@H]1CN(c2cccc3c2CN(C(=O)C2CCCC2)CC3)CCN1C(=O)Cn1cnc2cccnc21` [Example 69, 1-[(R)-4-(2-Cyclopentanecarbonyl-1,2,3,4-tetrahydro-isoquinolin-8-yl)-2-methyl-piperazin-1-yl]-2-imidazo[4,5-b]pyridin-3-yl-ethanone], for which the concentration for half-maximal inhibition (IC50) stood at 21.7 nM. As for `C[C@@H]1CN(c2cccc3c2CN(C(=O)C2CCCCC2)CC3)CCN1C(=O)Cn1cnc2cccnc21` [Example 70, 1-[(R)-4-(2-Cyclohexanecarbonyl-1,2,3,4-tetrahydro-isoquinolin-8-yl)-2-methyl-piperazin-1-yl]-2-imidazo[4,5-b]pyridin-3-yl-ethanone], the half-inhibitory concentration (IC50) was 55.5 nM. For the compound `C[C@@H]1CN(c2cccc3c2CN(C(=O)[C@@H]2CCCc4ccccc42)CC3)CCN1C(=O)Cn1cnc2cccnc21` [Example 71, 2-Imidazo[4,5-b]pyridin-3-yl-1-{(R)-2-methyl-4-[2-((R)-1,2,3,4-tetrahydro-naphthalene-1-carbonyl)-1,2,3,4-tetrahydro-isoquinolin-8-yl]-piperazin-1-yl}-ethanone], the IC50 worked out at 80.2 nM. In the case of `C[C@@H]1CN(c2cccc3c2CN(C(=O)c2ccccc2)CC3)CCN1C(=O)Cn1cnc2cccnc21` [Example 72, 1-[(R)-4-(2-Benzoyl-1,2,3,4-tetrahydro-isoquinolin-8-yl)-2-methyl-piperazin-1-yl]-2-imidazo[4,5-b]pyridin-3-yl-ethanone] it was 92.2 nM.

As to `Cc1ccc(C(=O)N2CCc3cccc(N4CCN(C(=O)Cn5cnc6cccnc65)[C@H](C)C4)c3C2)cc1` [Example 73, 2-Imidazo[4,5-b]pyridin-3-yl-1-{(R)-2-methyl-4-[2-(4-methyl-benzoyl)-1,2,3,4-tetrahydro-isoquinolin-8-yl]-piperazin-1-yl}-ethanone], the IC50 worked out at 111 nM. Under `C[C@@H]1CN(c2cccc3c2CN(C(=O)c2ccc(Cl)cc2)CC3)CCN1C(=O)Cn1cnc2cccnc21` [Example 74, 1-{(R)-4-[2-(4-Chloro-benzoyl)-1,2,3,4-tetrahydro-isoquinolin-8-yl]-2-methyl-piperazin-1-yl}-2-imidazo[4,5-b]pyridin-3-yl-ethanone] stands 46.6 nM; under `C[C@@H]1CN(c2cccc3c2CN(C(=O)c2ccc(Cl)c(Cl)c2)CC3)CCN1C(=O)Cn1cnc2cccnc21` [Example 75, 1-{(R)-4-[2-(3,4-Dichloro-benzoyl)-1,2,3,4-tetrahydro-isoquinolin-8-yl]-2-methyl-piperazin-1-yl}-2-imidazo[4,5-b]pyridin-3-yl-ethanone], 17 nM; under `C[C@@H]1CN(c2cccc3c2CN(C(=O)c2cccc(N(C)C)c2)CC3)CCN1C(=O)Cn1cnc2cccnc21` [Example 76, 1-{(R)-4-[2-(3-Dimethylamino-benzoyl)-1,2,3,4-tetrahydro-isoquinolin-8-yl]-2-methyl-piperazin-1-yl}-2-imidazo[4,5-b]pyridin-3-yl-ethanone], 82.4 nM. As for `C[C@@H]1CN(c2cccc3c2CN(C(=O)c2ccc(C(F)(F)F)cc2)CC3)CCN1C(=O)Cn1cnc2cccnc21` [Example 77, 2-Imidazo[4,5-b]pyridin-3-yl-1-{(R)-2-methyl-4-[2-(4-trifluoromethyl-benzoyl)-1,2,3,4-tetrahydro-isoquinolin-8-yl]-piperazin-1-yl}-ethanone], the IC50 amounted to 92.3 nM.

Regarding `C[C@@H]1CN(c2cccc3c2CN(C(=O)Cc2ccccc2)CC3)CCN1C(=O)Cn1cnc2cccnc21` [Example 78, 2-Imidazo[4,5-b]pyridin-3-yl-1-[(R)-2-methyl-4-(2-phenylacetyl-1,2,3,4-tetrahydro-isoquinolin-8-yl)-piperazin-1-yl]-ethanone], the IC50 worked out at 216 nM. As for `C[C@@H]1CN(c2cccc3c2CN(C(=O)[C@H](C)c2ccccc2)CC3)CCN1C(=O)Cn1cnc2cccnc21` [Example 79, (R)-1-{8-[(R)-4-(2-Imidazo[4,5-b]pyridin-3-yl-acetyl)-3-methyl-piperazin-1-yl]-3,4-dihydro-1H-isoquinolin-2-yl}-2-phenyl-propan-1-one], the IC50 was 570 nM.

With `C[C@@H]1CN(c2cccc3c2CN(C(=O)C2(c4ccccc4)CC2)CC3)CCN1C(=O)Cn1cnc2cccnc21` [Example 80, 2-Imidazo[4,5-b]pyridin-3-yl-1-{(R)-2-methyl-4-[2-(1-phenyl-cyclopropanecarbonyl)-1,2,3,4-tetrahydro-isoquinolin-8-yl]-piperazin-1-yl}-ethanone], the IC50 was 199 nM. As to `C[C@@H]1CN(c2cccc3c2CN(C(=O)COc2ccccc2)CC3)CCN1C(=O)Cn1cnc2cccnc21` [Example 81, 2-Imidazo[4,5-b]pyridin-3-yl-1-{(R)-2-methyl-4-[2-(2-phenoxy-acetyl)-1,2,3,4-tetrahydro-isoquinolin-8-yl]-piperazin-1-yl}-ethanone], the IC50 turned out to be 65.1 nM. Consider `C[C@@H]1CN(c2cccc3c2CN(C(=O)CCc2ccc(Cl)cc2)CC3)CCN1C(=O)Cn1cnc2cccnc21` [Example 82, 3-(4-Chloro-phenyl)-1-{8-[(R)-4-(2-imidazo[4,5-b]pyridin-3-yl-acetyl)-3-methyl-piperazin-1-yl]-3,4-dihydro-1H-isoquinolin-2-yl}-propan-1-one], for which the IC50 stood at 88.1 nM. Consider `C[C@@H]1CN(c2cccc3c2CN(C(=O)CCc2ccccc2)CC3)CCN1C(=O)Cn1cnc2cccnc21` [Example 83, 1-{8-[(R)-4-(2-Imidazo[4,5-b]pyridin-3-yl-acetyl)-3-methyl-piperazin-1-yl]-3,4-dihydro-1H-isoquinolin-2-yl}-3-phenyl-propan-1-one], for which the IC50 was found to be 450 nM. With `C[C@@H]1CN(c2cccc3c2CN(C(=O)CCc2ccc(Cl)c(Cl)c2)CC3)CCN1C(=O)Cn1cnc2cccnc21` [Example 84, 3-(3,4-Dichloro-phenyl)-1-{8-[(R)-4-(2-imidazo[4,5-b]pyridin-3-yl-acetyl)-3-methyl-piperazin-1-yl]-3,4-dihydro-1H-isoquinolin-2-yl}-propan-1-one], the IC50 is 99.7 nM. Regarding `C[C@@H]1CN(c2cccc3c2CN(C(=O)c2ccc4ncccc4c2)CC3)CCN1C(=O)Cn1cnc2cccnc21` [Example 85, 2-Imidazo[4,5-b]pyridin-3-yl-1-{(R)-2-methyl-4-[2-(quinoline-6-carbonyl)-1,2,3,4-tetrahydro-isoquinolin-8-yl]-piperazin-1-yl}-ethanone], the IC50 was determined as 866 nM. Regarding `C[C@@H]1CN(c2cccc3c2CN(C(=O)Cn2cnc4ccccc42)CC3)CCN1C(=O)Cn1cnc2cccnc21` [Example 86, 1-{(R)-4-[2-(2-Benzoimidazol-1-yl-acetyl)-1,2,3,4-tetrahydro-isoquinolin-8-yl]-2-methyl-piperazin-1-yl}-2-imidazo[4,5-b]pyridin-3-yl-ethanone], the IC50 was 686 nM. In the case of `C[C@@H]1CN(c2cccc3c2CN(C(=O)Cn2cccn2)CC3)CCN1C(=O)Cn1cnc2cccnc21` [Example 87, 2-Imidazo[4,5-b]pyridin-3-yl-1-{(R)-2-methyl-4-[2-(2-pyrazol-1-yl-acetyl)-1,2,3,4-tetrahydro-isoquinolin-8-yl]-piperazin-1-yl}-ethanone], the IC50 was found to be 5420 nM.

For `C[C@@H]1CN(c2cccc3c2CN(C(=O)CN2CCOCC2)CC3)CCN1C(=O)Cn1cnc2cccnc21` [Example 88, 2-Imidazo[4,5-b]pyridin-3-yl-1-{(R)-2-methyl-4-[2-(2-morpholin-4-yl-acetyl)-1,2,3,4-tetrahydro-isoquinolin-8-yl]-piperazin-1-yl}-ethanone], the IC50 was 1910 nM. Take `C[C@@H]1CN(c2cccc3c2CN(C(=O)c2ccnn2C)CC3)CCN1C(=O)Cn1cnc2cccnc21` [Example 89, 2-Imidazo[4,5-b]pyridin-3-yl-1-{(R)-2-methyl-4-[2-(2-methyl-2H-pyrazole-3-carbonyl)-1,2,3,4-tetrahydro-isoquinolin-8-yl]-piperazin-1-yl}-ethanone]: the IC50 was determined as 955 nM. In the case of `Cc1ccc(N2CCc3cccc(N4CCN(C(=O)Cn5cnc6cccnc65)[C@H](C)C4)c3C2)nc1` [Example 90, 2-Imidazo[4,5-b]pyridin-3-yl-1-{(R)-2-methyl-4-[2-(5-methyl-pyridin-2-yl)-1,2,3,4-tetrahydro-isoquinolin-8-yl]-piperazin-1-yl}-ethanone], the IC50 is 11.2 nM.

Take `C[C@@H]1CN(c2cccc3c2CN(c2ccc(F)cn2)CC3)CCN1C(=O)Cn1cnc2cccnc21` [Example 91, 1-{(R)-4-[2-(5-Fluoro-pyridin-2-yl)-1,2,3,4-tetrahydro-isoquinolin-8-yl]-2-methyl-piperazin-1-yl}-2-imidazo[4,5-b]pyridin-3-yl-ethanone]: the IC50 was determined as 8.01 nM.

Turning to `Cc1ccc(N2CCc3cccc(N4CCN(C(=O)Cn5cnc6cccnc65)[C@H](C)C4)c3C2)cn1` [Example 92, 2-Imidazo[4,5-b]pyridin-3-yl-1-{(R)-2-methyl-4-[2-(6-methyl-pyridin-3-yl)-1,2,3,4-tetrahydro-isoquinolin-8-yl]-piperazin-1-yl}-ethanone], the half-maximal inhibitory concentration (IC50) was determined as 0.97 nM.

For `C[C@@H]1CN(c2cccc3c2CN(c2ccc(Cl)cc2)CC3)CCN1C(=O)Cn1cnc2cccnc21` [Example 93, 1-{(R)-4-[2-(4-Chloro-phenyl)-1,2,3,4-tetrahydro-isoquinolin-8-yl]-2-methyl-piperazin-1-yl}-2-imidazo[4,5-b]pyridin-3-yl-ethanone], the IC50 was found to be 7.55 nM.

(Values after patent US9951063B2, “8-(piperazin-1-yl)-1,2,3,4-tetrahydro-isoquinoline derivatives” (IDORSIA PHARMACEUTICALS LTD, priority 2014, dated 2018).)
